The structures appear in SMILES notation. The source made the active and inactive calls.

What is called EC50 is the concentration needed to bring the measured effect to its halfway point. By IC50 is commonly meant the concentration at which inhibition is half-maximal. In general, AC50 refers to the midpoint of the concentration-response curve, whichever way the signal moves.

Assay [1] relates to Streptococcus. The experiment in a line: GAS UMAA2166 growth inhibition – luminescence, BacTiterGlo, counter-screen for streptokinase expression inhibitor project, dose response (AID 1915).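 Also: potency for reduction of bacterial viability or growth.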 It is filed as functional, organism-based.
The target in assay [2] is Induced myeloid leukemia cell differentiation protein Mcl-1 (Homo sapiens, UniProt Q07820). It is filed as functional.
Induced myeloid leukemia cell differentiation protein Mcl-1, sequence (Q07820 whole entry): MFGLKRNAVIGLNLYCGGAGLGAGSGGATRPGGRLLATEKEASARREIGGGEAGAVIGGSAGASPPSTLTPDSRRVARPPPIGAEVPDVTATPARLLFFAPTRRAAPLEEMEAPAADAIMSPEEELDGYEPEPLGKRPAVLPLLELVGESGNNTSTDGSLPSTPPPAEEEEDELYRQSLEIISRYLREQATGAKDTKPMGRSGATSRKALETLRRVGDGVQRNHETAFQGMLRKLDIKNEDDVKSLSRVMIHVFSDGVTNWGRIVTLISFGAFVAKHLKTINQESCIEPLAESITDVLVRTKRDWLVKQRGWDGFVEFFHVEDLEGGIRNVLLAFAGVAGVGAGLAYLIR
Assay [3] addresses T1, Type-1 angiotensin II receptor (Homo sapiens, UniProt P30556).
T1 sequence (P30556 whole entry): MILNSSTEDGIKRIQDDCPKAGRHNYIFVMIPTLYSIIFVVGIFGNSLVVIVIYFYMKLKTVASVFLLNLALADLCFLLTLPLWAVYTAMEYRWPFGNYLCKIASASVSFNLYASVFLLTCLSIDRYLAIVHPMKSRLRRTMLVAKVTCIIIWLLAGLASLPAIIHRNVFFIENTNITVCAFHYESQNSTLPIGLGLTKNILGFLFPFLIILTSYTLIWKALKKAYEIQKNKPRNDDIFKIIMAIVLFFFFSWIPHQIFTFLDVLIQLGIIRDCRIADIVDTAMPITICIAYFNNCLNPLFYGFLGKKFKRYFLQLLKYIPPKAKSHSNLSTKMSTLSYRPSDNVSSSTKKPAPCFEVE
The assay can be described thus: antagonism of angiotensin II type 1 receptor – cell-based, uHTS hits, selectivity assay for APJ receptor antagonist project, dose response (AID 463214).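 Also: antagonist potency against angiotensin II stimulated AT1 response.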 Type of assay: functional.

The nature of assay [4]: cytotoxicity toward MDA-MB-231 breast cancer cells – cell-based, CellTiter-Glo luminescence, cherry-pick, cytotoxicity control for RAD54 inhibitor project, dose response (AID 651692). It is filed as functional. Background: Cellular ATP, detected with luciferase, serves as a proxy for viable cell number.
For assay [5], the target named is T2, Dual specificity protein phosphatase 6 (Rattus norvegicus, UniProt Q64346).
T2 sequence (Q64346 whole entry): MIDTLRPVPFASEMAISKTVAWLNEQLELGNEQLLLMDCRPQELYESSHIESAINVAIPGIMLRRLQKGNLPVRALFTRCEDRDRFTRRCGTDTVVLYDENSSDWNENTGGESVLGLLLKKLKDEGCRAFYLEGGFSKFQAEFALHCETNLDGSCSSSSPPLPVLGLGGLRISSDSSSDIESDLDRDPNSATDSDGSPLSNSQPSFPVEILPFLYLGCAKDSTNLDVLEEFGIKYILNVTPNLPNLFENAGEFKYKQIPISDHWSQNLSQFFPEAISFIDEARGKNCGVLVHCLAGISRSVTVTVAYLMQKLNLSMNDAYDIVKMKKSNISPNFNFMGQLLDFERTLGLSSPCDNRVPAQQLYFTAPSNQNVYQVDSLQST
The experiment in a line: inhibition of rat DUSP6 enzyme activity – biochemical, in vitro, primary screen (AID 425).

Assay [6] deals with T3, Sentrin-specific protease 6 (Homo sapiens, UniProt Q9GZR1).
T3 sequence (Q9GZR1 whole entry): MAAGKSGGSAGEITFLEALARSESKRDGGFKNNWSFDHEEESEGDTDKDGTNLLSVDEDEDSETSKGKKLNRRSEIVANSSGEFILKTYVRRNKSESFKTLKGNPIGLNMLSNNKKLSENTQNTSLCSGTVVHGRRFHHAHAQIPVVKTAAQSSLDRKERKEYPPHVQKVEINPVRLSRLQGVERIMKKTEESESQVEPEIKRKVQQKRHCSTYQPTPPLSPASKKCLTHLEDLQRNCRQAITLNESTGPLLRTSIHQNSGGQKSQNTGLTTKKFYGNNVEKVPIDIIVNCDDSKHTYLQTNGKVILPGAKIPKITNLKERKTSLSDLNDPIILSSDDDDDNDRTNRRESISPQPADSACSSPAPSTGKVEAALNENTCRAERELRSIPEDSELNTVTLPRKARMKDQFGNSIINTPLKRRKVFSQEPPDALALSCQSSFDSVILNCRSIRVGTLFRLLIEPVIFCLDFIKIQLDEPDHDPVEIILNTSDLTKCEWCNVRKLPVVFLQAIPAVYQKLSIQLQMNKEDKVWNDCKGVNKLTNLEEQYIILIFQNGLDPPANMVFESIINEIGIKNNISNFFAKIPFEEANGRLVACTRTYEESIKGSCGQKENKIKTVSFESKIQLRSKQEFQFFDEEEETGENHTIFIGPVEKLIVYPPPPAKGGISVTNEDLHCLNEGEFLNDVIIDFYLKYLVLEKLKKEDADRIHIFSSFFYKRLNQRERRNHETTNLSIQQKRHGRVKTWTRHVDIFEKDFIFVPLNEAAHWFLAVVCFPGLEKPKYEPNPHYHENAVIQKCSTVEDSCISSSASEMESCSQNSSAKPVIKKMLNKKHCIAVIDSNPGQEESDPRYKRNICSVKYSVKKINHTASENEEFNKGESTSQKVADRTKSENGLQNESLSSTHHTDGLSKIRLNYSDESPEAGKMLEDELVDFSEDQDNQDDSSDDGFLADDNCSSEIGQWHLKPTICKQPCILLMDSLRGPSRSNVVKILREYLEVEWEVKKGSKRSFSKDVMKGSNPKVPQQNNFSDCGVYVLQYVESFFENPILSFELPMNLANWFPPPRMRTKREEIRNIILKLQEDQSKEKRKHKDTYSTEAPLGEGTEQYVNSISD
It is filed as functional.

Assay [7] has as its target T4, Sentrin-specific protease 8 (Homo sapiens, UniProt Q96LD8).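 Also: luminescence read-out of SENP8 inhibition, dose-response confirmation following an ultra-high-throughput screen.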
T4 sequence (Q96LD8 whole entry): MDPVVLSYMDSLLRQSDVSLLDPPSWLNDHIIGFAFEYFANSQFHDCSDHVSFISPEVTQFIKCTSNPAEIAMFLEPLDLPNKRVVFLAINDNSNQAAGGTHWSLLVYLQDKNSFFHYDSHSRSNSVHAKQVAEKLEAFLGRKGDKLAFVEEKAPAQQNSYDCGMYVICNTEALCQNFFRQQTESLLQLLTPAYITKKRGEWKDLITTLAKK
It is filed as functional.

Assay [8] has as its target Tyrosyl-DNA phosphodiesterase 2 (Homo sapiens, UniProt O95551). The assay can be described thus: potency against TDP2 phosphodiesterase activity – biochemical, epi absorbance, IC50, dose response (AID 743297).

Tyrosyl-DNA phosphodiesterase 2, sequence (O95551 whole entry): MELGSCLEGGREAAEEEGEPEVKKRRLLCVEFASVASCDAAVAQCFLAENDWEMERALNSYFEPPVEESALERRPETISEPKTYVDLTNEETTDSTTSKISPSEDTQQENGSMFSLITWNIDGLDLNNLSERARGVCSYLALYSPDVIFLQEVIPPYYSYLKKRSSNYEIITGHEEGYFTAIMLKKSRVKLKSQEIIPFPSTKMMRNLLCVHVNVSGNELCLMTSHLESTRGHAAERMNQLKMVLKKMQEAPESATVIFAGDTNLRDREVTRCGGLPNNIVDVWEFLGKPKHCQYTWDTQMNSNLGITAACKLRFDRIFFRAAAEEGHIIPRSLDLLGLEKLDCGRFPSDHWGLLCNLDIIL

For `CCCCCCCCCCOC(=O)Cn1c(COc2ccccc2)[n+](C)c2ccccc21`, the EC50 in assay [1] was 7.89 µM (active).

For `COc1cc(-c2nnc(SCc3cc(=O)oc4cc(O)c(O)cc34)o2)cc(OC)c1OC`, the IC50 in assay [2] is 3.77 µM (active).

On to `CCOC(=O)c1c(-c2ccc(-c3ccccc3)cc2)csc1NC(=O)CNCCN(C)C`, for which the IC50 in assay [3] is 9.33 µM (active). For the same compound, in assay [4], the AC50 is 18.4 µM (active).

Consider `N#Cc1c(NC(=O)c2ccc(Br)o2)n(-c2ccccc2)c2nc3ccccc3nc12`, for which the IC50 in assay [5] is 96.9 µM (active); in assay [6] it was 2.03 µM (active); in assay [7], 4.55 µM (active); in assay [8], 29.1 µM (inactive).
